Test results as given in ChEMBL document CHEMBL1201862, “PubChem BioAssay data set” (2004).
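Assay format: 96-well plates, 48-hour exposure. GI50 marks 50% less growth.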 The source made the active and inactive calls. No stated cut-off is given here; in the data, active = GI50 up to about 1.1 µM and inactive = higher.

Experiments:
Assay in all cases: NCI-60 cell line screen, 48 h
[1] = system: EKVX
[2] = system: LOX IMVI
[3] = system: CAKI-1
[4] = system: SF-539
[5] = system: RXF 393
[6] = system: OVCAR-3
[7] = system: OVCAR-8
[8] = system: U-251
[9] = system: 786-0
[10] = system: SW-620
[11] = system: SN12C
[12] = system: SK-MEL-28
[13] = system: SK-OV-3
[14] = system: HOP-62
[15] = system: TK-10
[16] = system: HL-60
[17] = system: SK-MEL-2

Measured: GI50

O=C1CC(CC(=O)C2CCCCC2=O)C(=O)N1 (centres undefined)
inactive: [1] > 100 µM | [2] > 100 µM | [3] > 100 µM | [4] > 100 µM | [5] > 100 µM | [6] > 100 µM | [7] > 100 µM | [8] > 100 µM | [9] > 100 µM | [10] > 100 µM | [11] > 100 µM | [12] > 100 µM | [13] > 100 µM | [14] > 100 µM | [15] > 100 µM | [16] > 100 µM

COc1cc(/C=N/N=C(\N)NO)c(Cl)cc1O
inactive: [1] 43.8 µM | [2] 32.7 µM | [3] 78 µM | [4] 81.3 µM | [5] 81.5 µM | [17] 71.6 µM | [7] 49.5 µM | [8] > 100 µM | [9] 46.6 µM | [10] 77.8 µM | [11] 58.2 µM | [12] 38.5 µM | [13] 85.9 µM

CC1=C(/C=C/C2=CC(=C\C(=O)O)/CC(C3=C(C)CCCC3(C)C)C2)C(C)(C)CCC1 (centres undefined)
inactive: [1] 11.3 µM | [2] 13.7 µM | [3] 15.9 µM | [4] 16.8 µM | [5] 10.8 µM | [17] 11.3 µM | [6] 14 µM | [7] 14.7 µM | [8] 11.1 µM | [9] 14.8 µM | [10] 15 µM | [11] 15.6 µM | [12] 16 µM | [13] 13.7 µM | [14] 14 µM | [15] 13.5 µM

CC(=O)O[C@]12CCCCC1C1(O)C(O)CCCCC12 (some centres undefined)
inactive: [1] > 100 µM | [2] > 100 µM | [5] > 100 µM | [17] > 100 µM | [7] > 100 µM | [8] > 100 µM | [9] > 100 µM | [10] > 100 µM | [11] > 100 µM | [12] > 100 µM | [13] > 100 µM | [14] > 100 µM | [15] > 100 µM | [16] > 100 µM

C=C(COC(C)=O)CC(OC(C)=O)c1ccccc1 (centres undefined)
inactive: [1] > 100 µM | [2] > 100 µM | [4] > 100 µM | [5] > 100 µM | [17] > 100 µM | [6] > 100 µM | [7] > 100 µM | [8] > 100 µM | [9] > 100 µM | [10] > 100 µM | [11] > 100 µM | [12] > 100 µM | [13] > 100 µM | [14] > 100 µM | [15] > 100 µM | [16] > 100 µM

COc1cc(C2C(Cl)C(=O)N2n2cnc3ccccc3c2=O)ccc1O (centres undefined)
inactive: [1] > 100 µM | [2] > 100 µM | [3] 70.6 µM | [5] 67.6 µM | [17] > 100 µM | [6] 85.1 µM | [7] > 100 µM | [8] 73.1 µM | [9] > 100 µM | [10] > 100 µM | [11] 89.5 µM | [12] 88.7 µM | [13] 68.9 µM | [14] > 100 µM | [15] > 100 µM | [16] > 10 µM

c1cc(N(CCn2cccn2)CCn2cccn2)cc(N(CCn2cccn2)CCn2cccn2)c1
inactive: [1] > 100 µM | [2] > 100 µM | [3] > 100 µM | [5] > 100 µM | [17] > 100 µM | [6] > 100 µM | [7] > 100 µM | [8] > 100 µM | [9] > 100 µM | [10] > 100 µM | [11] > 100 µM | [12] > 100 µM | [13] > 100 µM | [14] > 100 µM | [15] > 100 µM | [16] > 100 µM

CC1(C)CC(N2CCN(C3CC(C)(C)NC(C)(C)C3)CC2)CC(C)(C)N1
inactive: [1] > 100 µM | [2] > 100 µM | [3] > 100 µM | [4] > 100 µM | [5] > 100 µM | [6] > 100 µM | [7] > 100 µM | [8] > 100 µM | [9] > 100 µM | [10] > 100 µM | [11] > 100 µM | [12] > 100 µM | [13] > 100 µM | [14] > 100 µM | [15] > 100 µM | [16] > 100 µM

COc1cc2c3cc1Oc1c(OC)c(OC)cc4c1[C@@H](Cc1ccc(O)c(c1)Oc1ccc(cc1)C[C@@H]3N(C)CC2)N(C)CC4.c1ccccc1
inactive: [1] 13.9 µM | [2] 17.1 µM | [3] 1.79 µM | [4] 3.71 µM | [5] 12.4 µM | [17] 16.9 µM | [6] 14.4 µM | [7] 16.8 µM | [8] 10.1 µM | [9] 12.8 µM | [10] 16.2 µM | [11] 18.7 µM | [12] 15.3 µM | [14] 18.1 µM | [15] 17.8 µM | [16] 10.2 µM
